Reference: ChEMBL document CHEMBL1137005 (Bioorg Med Chem Lett, 2009)

Experiments:
Epoxide hydrolase 1 = molecular target: T1, Epoxide hydrolase 1 (Homo sapiens, UniProt P07099); test: Inhibition of human microsomal epoxide hydrolase
T1 sequence (P07099 whole entry): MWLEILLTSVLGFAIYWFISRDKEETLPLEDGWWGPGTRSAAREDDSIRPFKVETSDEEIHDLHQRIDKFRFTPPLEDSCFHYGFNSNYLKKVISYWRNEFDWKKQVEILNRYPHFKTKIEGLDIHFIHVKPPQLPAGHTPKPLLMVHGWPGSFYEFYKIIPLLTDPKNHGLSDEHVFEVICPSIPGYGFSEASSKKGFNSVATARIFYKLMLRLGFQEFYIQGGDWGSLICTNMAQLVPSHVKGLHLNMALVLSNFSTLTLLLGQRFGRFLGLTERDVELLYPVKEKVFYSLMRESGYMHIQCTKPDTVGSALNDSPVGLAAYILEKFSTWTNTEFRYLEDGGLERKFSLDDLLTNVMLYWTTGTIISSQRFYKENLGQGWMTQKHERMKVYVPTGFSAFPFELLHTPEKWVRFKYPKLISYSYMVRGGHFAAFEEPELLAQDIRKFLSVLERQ

[1] = molecular target: T2, Bifunctional epoxide hydrolase 2 (Homo sapiens, UniProt P34913); test: Inhibition of human soluble epoxide hydrolase
T2 sequence (P34913 whole entry): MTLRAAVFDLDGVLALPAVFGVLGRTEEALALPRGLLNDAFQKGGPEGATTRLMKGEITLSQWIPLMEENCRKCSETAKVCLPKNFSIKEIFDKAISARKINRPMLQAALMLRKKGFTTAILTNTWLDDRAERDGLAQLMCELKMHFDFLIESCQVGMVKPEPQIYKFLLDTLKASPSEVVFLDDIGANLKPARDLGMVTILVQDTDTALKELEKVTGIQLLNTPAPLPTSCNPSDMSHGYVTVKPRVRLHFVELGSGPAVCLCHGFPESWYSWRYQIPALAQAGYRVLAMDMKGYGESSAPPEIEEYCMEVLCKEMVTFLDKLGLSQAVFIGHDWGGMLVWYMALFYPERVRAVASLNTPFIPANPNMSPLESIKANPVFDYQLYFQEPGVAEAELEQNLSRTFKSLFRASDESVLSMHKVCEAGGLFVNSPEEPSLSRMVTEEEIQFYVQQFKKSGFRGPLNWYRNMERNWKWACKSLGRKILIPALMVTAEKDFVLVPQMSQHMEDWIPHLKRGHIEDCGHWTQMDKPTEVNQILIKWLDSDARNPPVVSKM

[2] = molecular target: T3, Bifunctional epoxide hydrolase 2 (Rattus norvegicus, UniProt P80299); test: Inhibition of rat soluble epoxide hydrolase
T3 sequence (P80299 whole entry): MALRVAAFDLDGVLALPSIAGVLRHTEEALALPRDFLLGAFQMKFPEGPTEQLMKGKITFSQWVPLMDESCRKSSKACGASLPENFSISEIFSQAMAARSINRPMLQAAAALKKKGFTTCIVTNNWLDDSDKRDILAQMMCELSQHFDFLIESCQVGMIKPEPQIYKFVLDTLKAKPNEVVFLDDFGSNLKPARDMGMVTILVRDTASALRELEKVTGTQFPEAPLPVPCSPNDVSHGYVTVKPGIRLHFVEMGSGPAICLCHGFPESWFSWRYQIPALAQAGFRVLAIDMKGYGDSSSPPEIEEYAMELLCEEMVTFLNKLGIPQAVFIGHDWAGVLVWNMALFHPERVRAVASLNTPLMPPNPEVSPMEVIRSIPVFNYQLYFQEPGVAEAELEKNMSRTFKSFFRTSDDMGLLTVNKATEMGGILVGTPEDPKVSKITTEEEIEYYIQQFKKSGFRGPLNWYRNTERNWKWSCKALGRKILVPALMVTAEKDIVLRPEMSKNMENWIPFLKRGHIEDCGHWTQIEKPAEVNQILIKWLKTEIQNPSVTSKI

[3] = molecular target: T2, Bifunctional epoxide hydrolase 2; test: Inhibition of human soluble epoxide hydrolase in HEK293 cells assessed as DHET production; assay type: cell-based
Cytochrome P450 2C9 = Cytochrome P450 2C9 (Homo sapiens, UniProt P11712); test: Inhibition of CYP2C9; assay type: ADME
Cytochrome P450 2D6 = Cytochrome P450 2D6 (Homo sapiens, UniProt P10635); test: Inhibition of CYP2D6; assay type: ADME
Chain of Cytochrome P450 2D6 (P10635 whole entry): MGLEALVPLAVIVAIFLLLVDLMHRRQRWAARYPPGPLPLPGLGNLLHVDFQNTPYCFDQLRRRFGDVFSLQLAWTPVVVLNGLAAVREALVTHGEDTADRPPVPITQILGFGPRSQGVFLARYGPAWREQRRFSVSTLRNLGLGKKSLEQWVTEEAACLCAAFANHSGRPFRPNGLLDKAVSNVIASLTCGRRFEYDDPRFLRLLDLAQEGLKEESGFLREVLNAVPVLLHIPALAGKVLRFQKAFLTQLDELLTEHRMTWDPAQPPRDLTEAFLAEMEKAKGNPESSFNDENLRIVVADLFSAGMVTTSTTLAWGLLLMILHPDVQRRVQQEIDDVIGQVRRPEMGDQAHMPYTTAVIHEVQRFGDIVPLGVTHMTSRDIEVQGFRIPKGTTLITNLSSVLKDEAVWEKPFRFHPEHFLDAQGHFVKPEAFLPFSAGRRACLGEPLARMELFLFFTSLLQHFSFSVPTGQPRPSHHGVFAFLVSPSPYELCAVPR

Cytochrome P450 3A4 = Cytochrome P450 3A4 (Homo sapiens, UniProt P08684); test: Inhibition of CYP3A4; assay type: ADME
[4] = Binding affinity to […] channel diltiazem binding site
[5] = Inhibition of potassium channel IKr
[6] = molecular target: Sodium channel protein type 5 subunit alpha (Homo sapiens, UniProt Q14524); test: Inhibition of Voltage-gated sodium channel subunit alpha Nav1.5
Chain of Sodium channel protein type 5 subunit alpha (Q14524 whole entry): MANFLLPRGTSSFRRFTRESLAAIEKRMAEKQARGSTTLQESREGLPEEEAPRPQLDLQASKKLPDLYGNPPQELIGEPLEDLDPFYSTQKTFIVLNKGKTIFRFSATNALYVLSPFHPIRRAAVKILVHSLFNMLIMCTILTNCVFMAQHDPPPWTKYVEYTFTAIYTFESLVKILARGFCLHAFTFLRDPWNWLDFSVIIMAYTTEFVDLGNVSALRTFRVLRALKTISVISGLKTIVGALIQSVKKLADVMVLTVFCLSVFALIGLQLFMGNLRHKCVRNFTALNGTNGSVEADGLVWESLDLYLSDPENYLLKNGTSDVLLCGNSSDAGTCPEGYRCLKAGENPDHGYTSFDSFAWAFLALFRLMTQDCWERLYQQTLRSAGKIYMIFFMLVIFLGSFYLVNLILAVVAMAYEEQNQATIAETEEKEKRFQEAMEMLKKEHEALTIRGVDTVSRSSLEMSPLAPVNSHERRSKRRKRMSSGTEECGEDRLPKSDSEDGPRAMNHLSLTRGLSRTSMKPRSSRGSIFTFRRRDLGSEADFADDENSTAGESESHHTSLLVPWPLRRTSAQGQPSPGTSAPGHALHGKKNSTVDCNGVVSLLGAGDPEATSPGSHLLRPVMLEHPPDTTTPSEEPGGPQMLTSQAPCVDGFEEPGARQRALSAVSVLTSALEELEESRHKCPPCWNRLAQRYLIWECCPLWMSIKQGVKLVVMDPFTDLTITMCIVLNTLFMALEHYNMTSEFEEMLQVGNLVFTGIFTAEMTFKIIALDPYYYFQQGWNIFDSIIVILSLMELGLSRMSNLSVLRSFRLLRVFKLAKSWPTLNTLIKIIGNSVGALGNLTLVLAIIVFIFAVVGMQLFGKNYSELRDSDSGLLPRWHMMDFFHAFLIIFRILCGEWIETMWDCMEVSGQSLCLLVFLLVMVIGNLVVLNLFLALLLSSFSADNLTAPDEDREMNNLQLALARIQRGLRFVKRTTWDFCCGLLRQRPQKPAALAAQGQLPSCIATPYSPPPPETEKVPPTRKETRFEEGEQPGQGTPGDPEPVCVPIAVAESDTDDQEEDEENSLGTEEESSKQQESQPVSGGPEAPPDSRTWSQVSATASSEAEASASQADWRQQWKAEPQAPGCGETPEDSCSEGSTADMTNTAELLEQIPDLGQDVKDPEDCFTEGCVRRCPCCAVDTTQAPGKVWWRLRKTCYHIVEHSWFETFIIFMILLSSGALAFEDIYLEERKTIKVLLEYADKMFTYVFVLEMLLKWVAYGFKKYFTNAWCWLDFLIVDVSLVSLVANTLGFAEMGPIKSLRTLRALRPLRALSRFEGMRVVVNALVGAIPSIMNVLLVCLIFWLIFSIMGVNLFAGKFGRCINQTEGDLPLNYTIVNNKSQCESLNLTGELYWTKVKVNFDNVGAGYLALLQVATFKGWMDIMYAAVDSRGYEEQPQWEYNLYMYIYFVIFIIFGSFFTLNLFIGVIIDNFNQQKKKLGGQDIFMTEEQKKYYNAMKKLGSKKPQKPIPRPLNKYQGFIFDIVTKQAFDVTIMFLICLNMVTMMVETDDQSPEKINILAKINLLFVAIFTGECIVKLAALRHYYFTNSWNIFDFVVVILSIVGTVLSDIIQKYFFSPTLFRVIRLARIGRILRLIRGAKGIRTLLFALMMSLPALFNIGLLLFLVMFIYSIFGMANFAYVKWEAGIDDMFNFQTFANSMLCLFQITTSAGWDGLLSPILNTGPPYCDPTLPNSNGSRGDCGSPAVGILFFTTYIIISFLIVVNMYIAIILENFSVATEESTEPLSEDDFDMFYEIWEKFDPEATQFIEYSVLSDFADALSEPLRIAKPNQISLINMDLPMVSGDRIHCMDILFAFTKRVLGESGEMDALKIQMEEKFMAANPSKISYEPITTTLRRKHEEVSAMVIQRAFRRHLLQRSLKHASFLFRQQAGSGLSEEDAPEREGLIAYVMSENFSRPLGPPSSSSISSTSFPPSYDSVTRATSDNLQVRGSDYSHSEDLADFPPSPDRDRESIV

[7] = Bioavailability in rat at 1 mg/kg, iv and 2 mg/kg, po; assay type: ADME, organism-based; conditions: in vivo
[8] = Clearance in rat at 1 mg/kg, iv and 2 mg/kg, po; assay type: ADME, organism-based; conditions: in vivo
[9] = Volume of distribution at steady state in rat at 1 mg/kg, iv and 2 mg/kg, po; assay type: ADME, organism-based; conditions: in vivo, read-out: Vdss
[10] = Half life in rat at 1 mg/kg, iv and 2 mg/kg, po; assay type: ADME, organism-based; conditions: in vivo
Blood = test: Inhibition of DHET production in rat whole blood at 1 uM after 1 hr; assay type: functional; design: Activity: scale not given: the % may be the effect or the level left
[11] = molecular target: Voltage-dependent L-type calcium channel subunit alpha-1C (Homo sapiens, UniProt Q13936); test: Activity at Cav 1.2 channel
Chain of Voltage-dependent L-type calcium channel subunit alpha-1C (Q13936 whole entry): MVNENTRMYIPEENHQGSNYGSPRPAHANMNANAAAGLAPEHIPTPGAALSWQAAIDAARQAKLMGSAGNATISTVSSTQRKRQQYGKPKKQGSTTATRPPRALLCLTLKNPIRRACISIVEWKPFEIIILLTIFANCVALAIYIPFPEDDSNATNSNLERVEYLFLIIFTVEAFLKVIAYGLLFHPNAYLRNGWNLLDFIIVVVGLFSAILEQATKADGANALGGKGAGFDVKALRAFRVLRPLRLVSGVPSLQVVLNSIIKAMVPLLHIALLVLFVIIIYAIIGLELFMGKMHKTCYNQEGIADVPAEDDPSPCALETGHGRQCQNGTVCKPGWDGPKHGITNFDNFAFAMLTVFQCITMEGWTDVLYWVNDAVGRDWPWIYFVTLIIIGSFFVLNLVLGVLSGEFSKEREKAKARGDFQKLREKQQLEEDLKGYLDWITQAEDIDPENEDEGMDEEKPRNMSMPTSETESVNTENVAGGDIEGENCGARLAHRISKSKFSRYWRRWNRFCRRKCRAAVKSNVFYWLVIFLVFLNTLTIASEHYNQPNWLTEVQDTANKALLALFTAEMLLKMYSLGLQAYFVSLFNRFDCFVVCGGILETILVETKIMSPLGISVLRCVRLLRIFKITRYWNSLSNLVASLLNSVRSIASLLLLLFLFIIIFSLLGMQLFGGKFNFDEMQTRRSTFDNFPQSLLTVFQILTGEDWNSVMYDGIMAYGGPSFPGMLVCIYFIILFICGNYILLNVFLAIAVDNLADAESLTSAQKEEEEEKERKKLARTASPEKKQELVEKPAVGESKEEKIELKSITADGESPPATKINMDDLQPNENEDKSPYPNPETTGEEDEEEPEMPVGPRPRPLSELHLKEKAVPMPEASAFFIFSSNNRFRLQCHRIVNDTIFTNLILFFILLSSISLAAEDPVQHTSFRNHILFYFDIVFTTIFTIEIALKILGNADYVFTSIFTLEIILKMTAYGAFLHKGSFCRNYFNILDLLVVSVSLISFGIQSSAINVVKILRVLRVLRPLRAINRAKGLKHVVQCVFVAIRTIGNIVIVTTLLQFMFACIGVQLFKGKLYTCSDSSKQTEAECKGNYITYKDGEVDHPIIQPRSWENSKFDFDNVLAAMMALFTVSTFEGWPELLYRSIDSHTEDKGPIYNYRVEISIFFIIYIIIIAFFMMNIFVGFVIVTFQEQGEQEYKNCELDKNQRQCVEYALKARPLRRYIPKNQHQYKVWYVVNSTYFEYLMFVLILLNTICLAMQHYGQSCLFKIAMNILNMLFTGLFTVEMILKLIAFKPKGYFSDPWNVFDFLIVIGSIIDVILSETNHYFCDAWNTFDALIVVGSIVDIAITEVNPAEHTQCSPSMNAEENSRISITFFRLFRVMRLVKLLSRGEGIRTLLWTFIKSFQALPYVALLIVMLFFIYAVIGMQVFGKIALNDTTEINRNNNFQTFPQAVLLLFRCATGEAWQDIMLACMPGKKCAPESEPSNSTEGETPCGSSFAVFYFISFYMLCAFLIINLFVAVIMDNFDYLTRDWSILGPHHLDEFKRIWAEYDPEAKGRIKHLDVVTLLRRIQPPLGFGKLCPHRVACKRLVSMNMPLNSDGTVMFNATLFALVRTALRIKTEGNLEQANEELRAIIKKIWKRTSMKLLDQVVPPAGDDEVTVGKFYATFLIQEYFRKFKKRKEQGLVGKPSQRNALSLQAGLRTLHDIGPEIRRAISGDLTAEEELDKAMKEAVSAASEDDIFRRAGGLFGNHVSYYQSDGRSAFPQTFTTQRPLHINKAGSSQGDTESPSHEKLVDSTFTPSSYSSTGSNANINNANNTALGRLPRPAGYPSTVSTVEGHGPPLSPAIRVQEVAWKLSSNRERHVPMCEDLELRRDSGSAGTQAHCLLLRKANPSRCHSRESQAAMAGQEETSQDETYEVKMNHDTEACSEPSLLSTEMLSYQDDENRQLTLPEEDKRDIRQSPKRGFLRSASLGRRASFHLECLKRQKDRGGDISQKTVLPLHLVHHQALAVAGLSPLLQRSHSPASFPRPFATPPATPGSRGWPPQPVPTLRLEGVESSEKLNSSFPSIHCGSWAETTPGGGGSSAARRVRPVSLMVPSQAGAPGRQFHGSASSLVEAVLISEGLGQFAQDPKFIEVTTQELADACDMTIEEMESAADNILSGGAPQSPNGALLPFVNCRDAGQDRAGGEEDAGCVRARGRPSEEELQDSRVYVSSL

SMILES | IC50 (Epoxide hydrolase 1) | IC50 [1] | IC50 [2] | IC50 [3] | IC50 (Cytochrome P450 2C9) | IC50 (Cytochrome P450 2D6) | IC50 (Cytochrome P450 3A4) | IC50 [4] | bioavailability [7] | clearance [8] | Vd [9] | half-life [10] | IC50 ([3]; hek293) | IC50 [5] | IC50 [6] | Activity (Blood) | inhibition at 1 µM (Blood; Rattus norvegicus, Blood, 1 h) | IC50 [11]
O=C1CC2(CCN(C(=O)N[C@H]3C[C@@H]3c3ccccc3)CC2)Oc2ccccc21 | – | 0.003 µM | 0.009 µM | 0.003 µM | 10 µM | > 10 µM | > 10 µM | > 30 µM | – | – | – | – | – | 14 µM | > 10 µM | – | – | –
CS(=O)(=O)c1ccc2c(c1)CCC1(CCN(C(=O)N[C@H]3C[C@@H]3c3ccccc3)CC1)O2 | 24 µM | 0.003 µM | 0.023 µM | < 0.001 µM | > 10 µM | > 10 µM | > 10 µM | 28 µM | – | – | – | – | – | 15 µM | > 10 µM | – | – | –
O=C(c1ccc(C(F)(F)F)cc1)N1CCC2(CCc3ccccc3O2)CC1 | 22 µM | 0.004 µM | 0.01 µM | < 0.001 µM | > 10 µM | > 10 µM | > 10 µM | 2 µM | – | – | – | – | – | 1 µM | > 10 µM | 48% | – | –
CS(=O)(=O)c1ccc2c(c1)CCC1(CCN(C(=O)N[C@H]3C[C@@H]3c3ccccc3)CC1)O2.Cl (racemic) | – | – | – | – | – | – | – | – | 86% | 0.7 mL/min/kg | 0.23 L/kg | 3.9 h | – | – | – | – | 32% | –
O=C(N[C@H]1C[C@@H]1c1ccccc1)N1CCC2(CCc3cc(F)ccc3O2)CC1 (racemic) | > 100 µM | 0.003 µM | 0.018 µM | < 0.001 µM | < 10 µM | > 10 µM | > 10 µM | 2 µM | – | – | – | – | – | 7 µM | > 10 µM | – | – | –
O=C1CC2(CCN(C(=O)NC3CCc4ccccc4C3)CC2)Oc2ccccc21 (racemic) | 26 µM | 0.005 µM | 0.039 µM | – | > 10 µM | > 10 µM | > 10 µM | 9 µM | – | – | – | – | – | 12 µM | 1 µM | – | – | –
CS(=O)(=O)c1ccc2c(c1)C(=O)CC1(CCN(C(=O)N[C@H]3C[C@@H]3c3ccccc3)CC1)O2 (racemic) | – | 0.004 µM | 0.012 µM | – | > 10 µM | > 10 µM | > 10 µM | > 26 µM | 49% | 1 mL/min/kg | 0.2 L/kg | 2.6 h | – | 4 µM | > 10 µM | – | – | –
O=C(N[C@H]1C[C@@H]1c1ccccc1)N1CCC2(CCc3ccccc3O2)CC1 (racemic) | > 100 µM | 0.004 µM | 0.011 µM | – | < 10 µM | > 10 µM | > 10 µM | 6 µM | – | – | – | – | – | 15 µM | > 10 µM | 20% | – | –
O=C1CC2(CCN(C(=O)N[C@H]3C[C@@H]3c3ccccc3)CC2)Oc2cccnc21 (relative stereo) | > 100 µM | 0.008 µM | 0.02 µM | 0.004 µM | – | > 10 µM | > 10 µM | – | – | – | – | – | – | > 30 µM | > 10 µM | 12% | – | > 30 µM

The remaining compounds from weak to strong by IC50 [2], led by results:

IC50 (Epoxide hydrolase 1) | IC50 [1] | IC50 [2] | IC50 [3] | IC50 (Cytochrome P450 2C9) | IC50 (Cytochrome P450 2D6) | IC50 (Cytochrome P450 3A4) | IC50 [4] | bioavailability [7] | clearance [8] | Vd [9] | half-life [10] | IC50 ([3]; hek293) | SMILES | IC50 [5] | IC50 [6] | Activity (Blood) | inhibition at 1 µM (Blood; Rattus norvegicus, Blood, 1 h) | IC50 [11]
55 µM | 0.011 µM | 0.049 µM | 0.003 µM | > 10 µM | > 10 µM | > 10 µM | – | – | – | – | – | – | CS(=O)(=O)c1ccc2c(c1)CCC1(CCCN(C(=O)N[C@H]3C[C@@H]3c3ccccc3)CC1)O2 (relative stereo) | 2 µM | > 10 µM | – | – | > 30 µM
28 µM | 0.02 µM | 0.035 µM | 0.03 µM | < 10 µM | > 10 µM | > 10 µM | 6 µM | – | – | – | – | – | O=C1CC2(CCN(C(=O)NC3CCc4ccccc43)CC2)Oc2ccccc21 (racemic) | 6 µM | < 10 µM | – | – | –
> 100 µM | 0.008 µM | 0.031 µM | 0.008 µM | > 10 µM | > 10 µM | > 10 µM | > 30 µM | – | – | – | – | – | O=C(N[C@H]1C[C@@H]1c1ccccc1)N1CCC2(CC1)CC(O)c1ncccc1O2 (relative stereo) | > 30 µM | > 10 µM | 7.3% | – | –
> 100 µM | 0.011 µM | 0.029 µM | – | > 10 µM | > 10 µM | > 10 µM | – | – | – | – | – | 0.003 µM | O=C1CC2(CCN(C(=O)N[C@H]3C[C@@H]3c3ccccc3)CC2)Oc2ccccc21 (relative stereo) | 17 µM | > 10 µM | – | – | –
– | 0.008 µM | 0.028 µM | – | – | – | – | 5 µM | – | – | – | – | – | O=C1CC2(CCN(C(=O)NC3CCc4ccccc4CC3)CC2)Oc2ccccc21 | 5 µM | – | – | – | –
10 µM | 0.007 µM | 0.021 µM | – | < 10 µM | > 10 µM | > 10 µM | 18 µM | – | – | – | – | – | CS(=O)(=O)c1ccc2c(c1)C(=O)CC1(CCN(C(=O)N[C@@H]3CC[C@@H](c4ccccc4)C3)CC1)O2 (racemic) | 3 µM | > 10 µM | – | – | –
15 µM | 0.004 µM | 0.021 µM | < 0.001 µM | > 10 µM | > 10 µM | > 10 µM | – | – | – | – | – | – | Cn1nccc1-c1ccc2c(c1)C(=O)CC1(CCN(C(=O)N[C@H]3C[C@@H]3c3ccccc3)CC1)O2 (racemic) | 4 µM | > 10 µM | – | – | 28 µM
> 100 µM | 0.005 µM | 0.021 µM | < 0.001 µM | > 10 µM | > 10 µM | > 10 µM | – | – | – | – | – | – | O=C(N[C@H]1C[C@@H]1c1ccccc1)N1CCC2(CCc3ncccc3O2)CC1 (relative stereo) | > 30 µM | > 10 µM | 9.2% | – | 20 µM
> 100 µM | 0.003 µM | 0.013 µM | < 0.001 µM | 10 µM | > 10 µM | > 10 µM | – | – | – | – | – | – | Cn1nccc1Nc1ccc2c(c1)C(=O)CC1(CCN(C(=O)N[C@H]3C[C@@H]3c3ccccc3)CC1)O2 (racemic) | 2 µM | > 10 µM | – | – | 26 µM
> 100 µM | 0.007 µM | 0.01 µM | 0.003 µM | < 10 µM | < 10 µM | > 10 µM | 3 µM | – | – | – | – | – | O=C(CCc1ccccc1)N1CCC2(CCc3cc(F)ccc3O2)CC1 | 6 µM | < 10 µM | – | – | –
> 100 µM | 0.001 µM | 0.007 µM | – | < 10 µM | < 10 µM | < 10 µM | 4 µM | – | – | – | – | – | O=C1CC2(CCN(C(=O)N[C@H]3C[C@@H]3c3ccccc3)CC2)Oc2ccc(-c3ccncc3)cc21 (racemic) | 0.2 µM | > 10 µM | – | – | –
– | – | 0.004 µM | – | – | – | – | > 30 µM | 67% | 0.7 mL/min/kg | 0.15 L/kg | 2.6 h | – | CS(=O)(=O)c1ccc2c(c1)CCC1(CCN(C(=O)Cc3ccc(Cl)cc3Cl)CC1)O2 | 0.8 µM | – | – | – | –
